In the NIST ThermoML archive (doi:10.1021/je400407z):

Conditions: Liquid, Closed cell (Static) method

FC(F)CC(F)(F)F [1,1,1,3,3-pentafluoropropane]
Conditions	vapor or sublimation pressure [kPa]
260.32 K	28.52
272.13 K	50.91
281.15 K	75.62
293.31 K	122.98
305.49 K	192.78
313.62 K	254.28
321.4 K	324.38
333.49 K	467.72
345.16 K	642.26
351.47 K	754.32
364 K	1028.2
377.04 K	1378.2

C=C(Cl)C(F)(F)F [2-chloro-3,3,3-trifluoro-1-propene]
Conditions	vapor or sublimation pressure [kPa]
263.25 K	43.43
264.27 K	45.2
265.23 K	47.13
266.27 K	48.88
267.16 K	51.02
267.22 K	50.69
268.2 K	52.65
269.08 K	55.2
270.04 K	57.24
270.94 K	59.24
270.95 K	59.34
271.9 K	61.45
273.85 K	66.42
274.8 K	68.69
275.39 K	70.68
277.03 K	75.24
277.96 K	77.86
278.77 K	80.2
278.99 K	81.33
279.8 K	83.72
280.56 K	85.87
281.62 K	89.39
282.8 K	93.36
283.65 K	95.62
284.51 K	98.59
285.1 K	100.84
286.15 K	103.78
287.18 K	107.59
288.59 K	113.2
289.24 K	115.72
290.31 K	120.08
292.2 K	128.29
294.48 K	138.49
296.12 K	146.32
297.41 K	152.85
298.46 K	158.2
299.53 K	164.03
300.22 K	167.73
301.38 K	174.15
303.03 K	183.59
304.22 K	191.32
305.36 K	198.32
306.37 K	205.25
307.38 K	212.61
308.45 K	219.76
309.44 K	226.88
311.14 K	239.23
312.65 K	250.71
313.32 K	255.58
314.65 K	265.41
315.41 K	271.67
316.41 K	279.99
317.54 K	288.86
318.54 K	296.49
319.54 K	305.35
320.2 K	312.84
321.51 K	323.9
322.28 K	330.9
322.39 K	331.79
323.27 K	340.55
324.4 K	351.13
325.16 K	359.71
326.17 K	370.1
327.54 K	383.61
328.16 K	390.36
329.38 K	402.72
330.27 K	412.59
331.36 K	424.58
332.28 K	434.81
333.1 K	444.59
333.37 K	447.55
334.34 K	462.26
335.18 K	468.47
336.2 K	480.83
337.33 K	494.73
338.3 K	506.41
339.24 K	518.13
340.43 K	533.53
341.35 K	545.17
342.25 K	558.82
342.53 K	561.23
344.38 K	589.61
345.78 K	613.34
346.77 K	629.58
347.88 K	646.33
348.77 K	660.14
349.98 K	679.92
350.86 K	695.77
352.84 K	728.61
354.89 K	762.84
356.87 K	799.73
358.89 K	838.22
360.78 K	874.39
362.63 K	916.57
364.64 K	957.2
366.88 K	1003.7
368.89 K	1047.8
370.88 K	1093
372.9 K	1138.9
